ChEMBL document CHEMBL1147291, “Bioactive compounds from the root of Myrsine africana” (J Nat Prod, 1989)
Values after ≈ are worked out from the molar mass of the structure shown.

How the values were obtained:
A549 = assay: Cytotoxicity against human A549 cells; type: functional; details: read-out: ED50 (the source's name)
HT-29 = assay: Cytotoxicity against human HT-29 cells; type: functional; details: read-out: ED50 (the source's name)
[1] = Cytotoxicity against human KBMRI cells; type: functional; details: read-out: ED50 (the source's name)
Artemia = assay: Toxicity in brine shrimp; type: organism-based; details: in vivo
P388 = assay: In vivo cytotoxicity against mouse P388 cells relative to control; type: functional
[2] = tested on: Agrobacterium tumefaciens; assay: Antitumor activity against Agrobacterium tumefaciens-induced crown gall tumors in potato tubers by potato disk test; type: functional

Row | Compound | EC50 (A549) | EC50 (HT-29) | EC50 [1] | LC50 (Artemia) | T/C (P388) | inhibition (INH) [2]
1 | Cc1cc2c(c(O)c1O)C(=O)c1c(O)cccc1C2=O | 3.1 µg/mL (≈ 11.5 µM) | 2.8 µg/mL (≈ 10.4 µM) | 5.7 µg/mL (≈ 21.1 µM) |  |  | 
2 | COc1cc(O)c2c(c1)COC2=O | > 100 µg/mL | 28 µg/mL (≈ 155 µM) | > 100 µg/mL | > 1000 ppm |  | 
3 | Cc1cc(O)c2c(c1)C(=O)c1cc(O)cc(O)c1C2=O [EMODIN] | 4.2 µg/mL (≈ 15.5 µM) | > 10 µg/mL | 6 µg/mL (≈ 22.2 µM) | 35 ppm | 127% | 40%
4 | CC(=O)c1c(C)cc2cccc(O)c2c1O [NEPODIN] | 31 µg/mL (≈ 143 µM) | 36.7 µg/mL (≈ 170 µM) | 36.7 µg/mL (≈ 170 µM) | 105 ppm |  | 
